# Test system: PDE-4
# Experiment: Phosphodiesterase 4 assay ([3H]cAMP SPA), enzyme preparation from rat heart
# Type: biochemical
# Details: PDE-4 activity, dose 10 μg/ml
# Procedure: FIG. 2. […] To examine whether IICT-TA67 inhibits PDE-4 activity in vitro, enzyme preparations were incubated in the absence or presence of different concentrations (1-20 μg/ml) of IICT-TA67 and breakdown of cAMP was monitored by β counter.
# Table 1. Measurement of phosphodiesterase (PDE)-4 activity by compounds.
# Heart was excised from anesthetized rat and transfer into normal saline solution. […] The homogenate was centrifuged at 500×g for 5 minute at 4° C. Then sup was taken for further centrifuged at 40,000×g for 30 minute (ultra centrifugation). After centrifugation supernatant was collected for phosphodiesterase assay. Protein concentration was estimated and for each assay, 2.5 μg protein (PDE enzyme preparation) was used.
# Phosphodiesterase 4 assay: Phosphodiesterase 4 assay was conducted with [^3H] cAMP SPA enzyme assay (GE Amersham, UK) using 2.5 μg enzyme preparation for each well. Into each well 60 μl water, 10 μl assay buffer supplied with the kit, 10 μl compound (inhibitor), 10 μl PDE enzyme or homogenizing buffer (blank) and 10 μl radiolabel led cAMP ([^3H]cAMP, GE Amersham, UK) were added. To check activity of the enzyme without inhibitor 10 μl DMSO was added in place of inhibitor to a separate well. The reaction mixtures were incubated for 30 mi at 30° C. The reaction was stopped by adding 50 μl SPA bead supplied with the kit. It was then mixed well and allowed to stand at room temperature for 20 min. Breakdown of cAMP in each tube was monitored by β counter. The reading in each tube was obtained in counts per minute (CPM). The reading of the blank tube (without enzyme) was subtracted from each tube to normalize the counts. The enzyme activity was calculated by considering the CPM reading without any inhibitor (compound) as 100.
row,SMILES,Inhibition % [%]
1,"COc1cc(C(c2cc3ccccc3[nH]2)c2cc3ccccc3[nH]2)ccc1Oc1nc(NC2CC2)nc(NC2CC2)n1 [Compound 1, 2,2′-[2,2′-4-(4,6-bis-cyclopropylamino)-1,3,5-triazin-2-yl-oxy-3-methoxyphenyl]-methylene-bis-1H-indole]",16
2,"COc1cc(C(c2cc3ccccc3[nH]2)c2cc3ccccc3[nH]2)ccc1Oc1nc(Nc2ccccc2)nc(Nc2ccccc2)n1 [Compound 2, 2,2′-[2,2′-4-(4,6-bis-anilino)-1,3,5-triazin-2-yl-oxy-3-methoxyphenyl]-methylene-bis-1H-indole]",34
3,"COc1cc(C(c2[nH]c3ccccc3c2CC(=O)O)c2[nH]c3ccccc3c2CC(=O)O)ccc1Oc1nc(NC2CC2)nc(NC2CC2)n1 [Compound 3, 2,2′-[2,2′-4-(4,6-bis-cyclopropylamino)-1,3,5-triazin-2-yl-oxy-3-methoxyphenyl]-methylene-bis-(1H-indole-3,3-diyl)-diacetic acid]",42
4,"COc1cc(C(c2[nH]c3ccccc3c2CC(=O)O)c2[nH]c3ccccc3c2CC(=O)O)ccc1Oc1nc(Nc2ccccc2)nc(Nc2ccccc2)n1 [Compound 4, 2,2′-[2,2′-4-(4,6-bis-anilino)-1,3,5-triazin-2-yl-oxy-3-methoxyphenyl]-methylene-bis-(1H-indole-3,3-diyl)-diacetic acid]",31
5,"COc1ccc(C(c2cc3ccccc3[nH]2)c2cc3ccccc3[nH]2)cc1Oc1nc(NC2CC2)nc(NC2CC2)n1 [Compound 5, 2,2′-[2,2′-3-(4,6-bis-cyclopropylamino)-1,3,5-triazin-2-yl-oxy-4-methoxyphenyl]-methylene-bis-1H-indole]",34
6,"COc1ccc(C(c2cc3ccccc3[nH]2)c2cc3ccccc3[nH]2)cc1Oc1nc(Nc2ccccc2)nc(Nc2ccccc2)n1 [Compound 6, 2,2′-[2,2′-3-(4,6-bis-anilino)-1,3,5-triazin-2-yl-oxy-4-methoxyphenyl]-methylene-bis-1H-indole]",45
7,"COc1ccc(C(c2[nH]c3ccccc3c2CC(=O)O)c2[nH]c3ccccc3c2CC(=O)O)cc1Oc1nc(Nc2ccccc2)nc(Nc2ccccc2)n1 [Compound 8, 2,2′-[2,2′-3-(4,6-bis-anilino)-1,3,5-triazin-2-yl-oxy-4-methoxyphenyl]-methylene-bis-(1H-indole-3,3-diyl)-diacetic acid]",73
8,"Clc1nc(NC2CC2)nc(NC2CC2)n1 [Compound 10, 6-Chloro-N^2,N^4-dicyclopropyl-1,3,5-triazine-2,4-diamine]",44
9,"Clc1nc(Nc2ccccc2)nc(Nc2ccccc2)n1 [Compound 11, 6-Chloro-N^2,N^4-diphenyl-1,3,5-triazine-2,4-diamine]",53
10,"COc1cc(C=O)ccc1Oc1nc(NC2CC2)nc(NC2CC2)n1 [Compound 12, 4-[4,6-Bis-cyclopropylamino-1,3,5-triazin-2-yl-oxy]-3-methoxy benzaldehyde]",29
11,"COc1cc(C=O)ccc1Oc1nc(Nc2ccccc2)nc(Nc2ccccc2)n1 [Compound 13, 4-[4,6-Bis-anilino-1,3,5-triazin-2-yl-oxy]-3-methoxy benzaldehyde]",30
12,"COc1ccc(C2CNC(=O)C2)cc1OC1CCCC1 (centres unmarked) [Rolipram, reference compound]",69

# Test system: not listed separately
# Experiment: Pharmacokinetic study, oral and i.v. route
# Type: in vivo, swiss mice
# Details: mouse, in vivo
# Procedure: FIG. 6. Pharmacokinetics of IICT-TA67 through oral route. FIG. 7. Pharmacokinetics of IICT-TA67 through intravenous (i.v) route in mice. IICT-TA67 (20 mg/kg) was administered orally (or 10 mg/kg by i.v. route) as a fine suspension in 1% Gum acacia. Blood samples were drawn from retro-orbital plexus at designated times in pre-labeled heparinised tubes and centrifuged (3500 rpm×10 minutes) to obtain the plasma. Blood samples were collected at 0, 5, 15 and 30 min, and 1, 2, 4, 6, 8, 16 and 24 hrs post-administration after oral/iv route. HPLC determinations were done on Shimadzu chromatograph (Model: LC-10 Atvp equipped with a diode array detector). The Molecule ICT-TA67 was determined at 276 nm using RP-18 column (5 μm×25 cm). Mobile phase consisted of acetonitrile: water (55:45) with a flow rate of 1.0 ml/min.
# Animals. Healthy swiss mice of both the sexes (25-30) were used. The animals were kept (3/cage) under controlled conditions (temp 26±2° C.; relative humidity 50±5%; 12 h light/dark cycle) and maintained on pelleted rodent diet (Ashirwad Industries Ltd. Chandigarh, India). Water was provided ad libitum. Institutional Animal Ethics committee approved the animal experiments. Animals were fasted for 16 hours before use.
# Step 1: Dosing: IICT-TA67 (20 mg/kg) was administered orally (or 10 mg/kg by i.v.route) as a fine suspension in 1% Gum acacia. Blood samples were drawn from retro-orbital plexus at designated times in pre-labeled heparinised tubes and centrifuged (3500 rpm×10 minutes) to obtain the plasma. Blood samples were collected at 0, 5, 15 and 30 min, and 1, 2, 4, 6, 8, 16 and 24 hrs post-administration after oral/iv route.
# Step 2: HPLC determinations: Aliquots of plasma were mixed with acetonitrile (1:2), vortexed for two minutes (2500 rpm) and centrifuge at 5000 rpm for 10 min. The organic layer was collected and evaporated to dryness using solvent evaporator (Model: SPD 111V, Thermo Electron Corporation, MA). The dried samples were reconstituted in mobile phase for HPLC analysis. In a similar manner samples were also prepared from aliquots of plasma collected from untreated animals which were spiked with molecule 67 (0.25 μg-10 μg/ml). […] Reproducibility of the method was defined by both intra-, and inter-day variance. The retention time of Mol. 67 was 10.688 min, at which no other interfering peak was observed. The lower limit of detection (LOD) was 11 ng/ml; limit of quantitation (LOQ) was 32 ng/ml; recovery was 90±2%.
# HPLC determinations were done on Shimadzu chromatograph (Model: LC-10 Atvp equipped with a diode array detector). Molecule 67 was determined at 276 nm using RP-18 column (5 μm×25 cm). Mobile phase consisted of acetonitrile: water (55:45) with a flow rate of 1.0 ml/min.
# Step 3: Calculating Bioavailability indices: A concentration-time curve for Molecule 67 was established and pharmacokinetic parameters AUC, Cmax, and tmax were determined by a non-compartmental analysis using TOPFIT software package. Absolute bioavailability was determined using the following formula: AUCoral×doseiv/AUCiv×Doseoral.
row,SMILES,bioavailability and pharmacokinetics
1,"COc1ccc(C(c2[nH]c3ccccc3c2CC(=O)O)c2[nH]c3ccccc3c2CC(=O)O)cc1Oc1nc(Nc2ccccc2)nc(Nc2ccccc2)n1 [Compound 8, 2,2′-[2,2′-3-(4,6-bis-anilino)-1,3,5-triazin-2-yl-oxy-4-methoxyphenyl]-methylene-bis-(1H-indole-3,3-diyl)-diacetic acid]",potentially bioavailable with good pharmacokinetics

# Test system: BALB/c 3T3 cell line
# Experiment: Balb/c 3T3 Neutral Red Uptake (NRU) cytotoxicity assay
# Type: cell-based
# Details: NRU cytotoxicity test (FIG. 8)
# Text: FIG. 8. IICT-TA67 is not toxic. To evaluate the cytotoxicity of test chemical (IICT-TA67) BALB/c 3T3 cell line was used for Neutral Red Uptake (NRU) cytotoxicity test. The test result has been used to determine IC50 for IICT-TA67 and acute oral toxicity (LD50) in rodent was predicted.
# Basal cytotoxicity of IICT-TA67 has been performed to measure IC50 and thereafter predict in vivo acute oral LD50 values in rodent by using Halle's Registry of cytotoxicity (RC) prediction model: log (LD50)=0.435×log (IC50)+0.625 (Halle, 1998; Spielmann et al., 1999). Balb/c 3T3 Neutral Red Dye Uptake (NRU) cytotoxicity assay procedure was adopted (Liebsch & Spielmann 1995). In brief 3T3 cell were grown in 96 well microtitre plates and exposed to IICT-TA-67. After 48-hour incubation, the test material was removed and Neutral red (NR) solution was applied to the cells. The cells were incubated again, the excess NR solution was removed and finally NR was eluted from the cells. The NRU was determined by using a microtitre plate reader to measure the optical density at 540 nm of the eluted dye in 96 well plate. A calculation of cell viability expressed as NRU was made for each concentration of the test chemical by using the mean NRU of 6 replicate values per test concentration. The cell viability value was compared with the mean NRU of all vehicle control values and relative cell viability was then expressed as percent of untreated vehicle control. […] Although the percentage of viability is slightly more than 95% at 50 μg/ml of IICT-67, 30 μg/ml (% viability of cells is 98%)
row,SMILES,toxicity
1,"COc1ccc(C(c2[nH]c3ccccc3c2CC(=O)O)c2[nH]c3ccccc3c2CC(=O)O)cc1Oc1nc(Nc2ccccc2)nc(Nc2ccccc2)n1 [Compound 8, 2,2′-[2,2′-3-(4,6-bis-anilino)-1,3,5-triazin-2-yl-oxy-4-methoxyphenyl]-methylene-bis-(1H-indole-3,3-diyl)-diacetic acid]",potentially non toxic

# Source: patent US9085559B2, “Triazine-aryl-bis-indoles and process for preparation thereof” (COUNCIL OF SCIENTIFIC & INDUSTRIAL RESEARCH, priority 2010, dated 2015)
